Measurements published in ChEMBL document CHEMBL1154530, “Pyridyl-pyrimidine benzimidazole derivatives as potent, selective, and orally bioavailable inhibitors of Tie-2 kinase” (Bioorg Med Chem Lett, 2009).
Activity calls are given as the source filed them. The calls are words filed in the database; no cut-off is given here.

Legend:
[1] = target: T1, Angiopoietin-1 receptor (Homo sapiens, UniProt Q02763); experiment: Inhibition of Tie2
[2] = target: Vascular endothelial growth factor receptor 2 (Homo sapiens, UniProt P35968); experiment: Inhibition of KDR
[3] = target: T1, Angiopoietin-1 receptor; experiment: Inhibition of Tie2 autophosphorylation in human Ea.hy926 cells; type: cell-based
[4] = Inhibition of Aurora kinase in human HeLa cells assessed as induction of >=4N DNA content; type: cell-based
[5] = target: T2, Aurora kinase A (Homo sapiens, UniProt O14965); experiment: Inhibition of Aurora A
T2 sequence (O14965 whole entry): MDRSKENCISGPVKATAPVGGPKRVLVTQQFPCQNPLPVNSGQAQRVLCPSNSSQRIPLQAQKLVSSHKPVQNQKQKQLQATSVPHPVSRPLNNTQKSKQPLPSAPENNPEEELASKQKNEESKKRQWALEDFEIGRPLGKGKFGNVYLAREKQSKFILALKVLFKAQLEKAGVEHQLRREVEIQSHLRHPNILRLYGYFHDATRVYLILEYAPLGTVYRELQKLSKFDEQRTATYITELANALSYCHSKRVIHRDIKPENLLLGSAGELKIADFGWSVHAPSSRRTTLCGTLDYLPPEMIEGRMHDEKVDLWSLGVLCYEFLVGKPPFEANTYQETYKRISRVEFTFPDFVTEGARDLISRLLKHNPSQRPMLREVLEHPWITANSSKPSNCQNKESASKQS

[6] = target: Aurora kinase B (Homo sapiens, UniProt Q96GD4); experiment: Inhibition of Aurora B
[7] = Inhibition of JNK
[8] = test system: Mus musculus; experiment: Inhibition of human angiopoietin-1-stimulated Tie2 phosphorylation in mouse lung tissue model at >=30 mg/kg, po; type: functional, organism-based
[9] = Oral bioavailability in Sprague-Dawley rat at 5 mg/kg; type: ADME, organism-based; settings: in vivo
[10] = test system: Plasma; experiment: Unbound concentration in mouse plasma
[11] = test system: Mus musculus; experiment: Plasma concentration in mouse at 10 mg/kg, po; type: ADME, organism-based; set-up: dose 10 mg/kg, route oral; settings: in vivo
[12] = test system: Mus musculus; experiment: Inhibition of human angiopoietin-1-stimulated Tie2 phosphorylation in po dosed mouse lung tissue model; type: functional, organism-based
[13] = Half life in Sprague-Dawley rat at 0.5 mg/kg, iv; type: ADME, organism-based; set-up: dose 0.5 mg/kg, route intravenous; settings: in vivo
[14] = test system: Mus musculus; experiment: Inhibition of human angiopoietin-1-stimulated Tie2 phosphorylation in mouse lung tissue model at 10 mg/kg, po; type: functional; set-up: scale not given: the % may be the effect or the level left
[15] = Protein binding in mouse plasma; type: ADME, cell-free; settings: read-out: PPB (converted)
[16] = Clearance in Sprague-Dawley rat at 0.5 mg/kg, iv; type: ADME, organism-based; set-up: dose 0.5 mg/kg, route intravenous; settings: in vivo
[17] = Volume of distribution at steady state in Sprague-Dawley rat at 0.5 mg/kg, iv; type: ADME, organism-based; set-up: dose 0.5 mg/kg, route intravenous; settings: in vivo, read-out: Vdss

Vascular endothelial growth factor receptor 2, sequence (P35968 whole entry): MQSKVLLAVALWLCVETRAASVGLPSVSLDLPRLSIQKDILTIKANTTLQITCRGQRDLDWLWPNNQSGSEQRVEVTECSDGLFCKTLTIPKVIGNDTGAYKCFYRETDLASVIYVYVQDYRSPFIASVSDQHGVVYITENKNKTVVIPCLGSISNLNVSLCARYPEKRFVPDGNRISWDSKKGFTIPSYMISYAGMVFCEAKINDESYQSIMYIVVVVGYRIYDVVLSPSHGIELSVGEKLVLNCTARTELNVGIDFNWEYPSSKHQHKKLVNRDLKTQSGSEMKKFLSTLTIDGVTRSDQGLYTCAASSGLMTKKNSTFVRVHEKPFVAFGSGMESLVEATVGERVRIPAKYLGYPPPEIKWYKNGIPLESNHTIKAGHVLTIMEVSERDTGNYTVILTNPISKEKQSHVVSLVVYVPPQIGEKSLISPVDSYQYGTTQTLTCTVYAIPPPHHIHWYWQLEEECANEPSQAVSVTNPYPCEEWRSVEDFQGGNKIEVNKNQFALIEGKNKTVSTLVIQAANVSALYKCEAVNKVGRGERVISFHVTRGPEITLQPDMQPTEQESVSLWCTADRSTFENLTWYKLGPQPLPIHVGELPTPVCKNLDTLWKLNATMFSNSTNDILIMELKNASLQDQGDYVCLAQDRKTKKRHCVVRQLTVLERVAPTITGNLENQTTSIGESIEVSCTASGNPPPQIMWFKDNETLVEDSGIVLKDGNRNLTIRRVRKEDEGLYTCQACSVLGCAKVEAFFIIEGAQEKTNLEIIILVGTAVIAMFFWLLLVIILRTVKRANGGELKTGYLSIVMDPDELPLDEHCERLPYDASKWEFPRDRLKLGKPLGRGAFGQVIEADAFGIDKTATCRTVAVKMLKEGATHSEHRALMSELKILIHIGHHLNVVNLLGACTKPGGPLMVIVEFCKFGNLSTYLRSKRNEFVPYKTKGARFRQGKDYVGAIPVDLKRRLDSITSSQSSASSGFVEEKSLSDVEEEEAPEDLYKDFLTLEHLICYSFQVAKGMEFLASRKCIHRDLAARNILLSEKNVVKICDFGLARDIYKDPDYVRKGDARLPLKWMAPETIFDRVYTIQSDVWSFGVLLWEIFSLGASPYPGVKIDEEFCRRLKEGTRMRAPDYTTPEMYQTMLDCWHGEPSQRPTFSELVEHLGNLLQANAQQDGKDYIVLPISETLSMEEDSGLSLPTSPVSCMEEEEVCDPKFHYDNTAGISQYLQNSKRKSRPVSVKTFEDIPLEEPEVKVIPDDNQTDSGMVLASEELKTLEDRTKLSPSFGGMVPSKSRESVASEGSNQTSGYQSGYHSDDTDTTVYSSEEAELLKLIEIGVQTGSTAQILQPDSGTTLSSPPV
T1 sequence (Q02763 whole entry): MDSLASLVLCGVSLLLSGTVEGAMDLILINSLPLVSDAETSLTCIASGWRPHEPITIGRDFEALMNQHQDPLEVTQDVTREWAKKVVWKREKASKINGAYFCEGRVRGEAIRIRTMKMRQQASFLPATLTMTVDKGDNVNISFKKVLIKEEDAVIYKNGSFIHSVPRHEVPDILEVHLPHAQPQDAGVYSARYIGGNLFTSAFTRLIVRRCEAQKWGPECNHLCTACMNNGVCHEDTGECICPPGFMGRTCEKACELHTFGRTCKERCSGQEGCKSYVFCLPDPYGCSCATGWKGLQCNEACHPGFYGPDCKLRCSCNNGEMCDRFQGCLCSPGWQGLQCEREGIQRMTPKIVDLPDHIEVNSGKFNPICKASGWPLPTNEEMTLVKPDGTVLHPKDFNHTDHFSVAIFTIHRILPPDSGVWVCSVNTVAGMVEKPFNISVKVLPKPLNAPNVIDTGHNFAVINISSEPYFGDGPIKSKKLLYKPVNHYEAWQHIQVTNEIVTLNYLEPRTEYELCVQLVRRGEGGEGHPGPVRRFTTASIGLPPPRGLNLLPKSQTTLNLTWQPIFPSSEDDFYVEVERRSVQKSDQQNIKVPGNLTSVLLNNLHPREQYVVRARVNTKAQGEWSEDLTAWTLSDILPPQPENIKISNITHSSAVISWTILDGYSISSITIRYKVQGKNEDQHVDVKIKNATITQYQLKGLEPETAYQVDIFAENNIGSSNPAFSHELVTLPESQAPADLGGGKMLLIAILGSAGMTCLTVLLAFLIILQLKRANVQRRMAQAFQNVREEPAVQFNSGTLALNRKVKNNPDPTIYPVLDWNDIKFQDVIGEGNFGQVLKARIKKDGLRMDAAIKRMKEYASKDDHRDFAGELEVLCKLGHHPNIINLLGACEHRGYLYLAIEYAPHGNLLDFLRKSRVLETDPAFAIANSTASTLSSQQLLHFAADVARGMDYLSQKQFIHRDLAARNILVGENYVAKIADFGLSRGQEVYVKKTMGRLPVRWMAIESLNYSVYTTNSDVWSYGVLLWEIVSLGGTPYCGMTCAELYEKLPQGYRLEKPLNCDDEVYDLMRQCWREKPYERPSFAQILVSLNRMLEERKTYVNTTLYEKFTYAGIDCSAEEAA
Aurora kinase B, sequence (Q96GD4 whole entry): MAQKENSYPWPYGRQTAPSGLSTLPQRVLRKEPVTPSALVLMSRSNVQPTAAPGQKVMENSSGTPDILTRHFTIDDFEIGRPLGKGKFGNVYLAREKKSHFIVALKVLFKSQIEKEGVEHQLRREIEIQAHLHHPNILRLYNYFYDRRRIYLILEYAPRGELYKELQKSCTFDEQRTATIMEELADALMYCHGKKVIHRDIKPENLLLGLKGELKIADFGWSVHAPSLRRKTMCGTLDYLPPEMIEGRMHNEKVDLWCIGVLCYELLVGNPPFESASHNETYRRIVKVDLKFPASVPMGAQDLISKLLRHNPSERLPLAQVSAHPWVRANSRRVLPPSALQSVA

| SMILES | IC50 [1] [nM] | IC50 [2] [nM] | other results |
| --- | --- | --- | --- |
| CNc1nccc(-c2cccnc2Oc2ccc(Nc3nc4ccc(C(F)(F)F)cc4[nH]3)cc2C)n1 | 470 | 6000 | – |
| CNc1nccc(-c2cccnc2Oc2ccc(Nc3nc4ccccc4[nH]3)cc2)n1 | 250 | > 25000 | – |
| CNc1nccc(-c2cccnc2Oc2ccc(NC(=O)Nc3ccccc3)cc2C)n1 | 460 | 7600 | – |
| CNc1nccc(-c2cccnc2Oc2ccc(Nc3nc4ccccc4s3)c3ccccc23)n1 | 44 | 88 | – |
| CNc1nccc(-c2cccnc2Oc2ccc(Nc3nc4ccccc4o3)c3ccccc23)n1 | 16 | 30 | – |
| CNc1nccc(-c2cccnc2Oc2ccc(Nc3nc4ccccc4[nH]3)c3ccccc23)n1 | 1 | 1400 | IC50 [3]: 20 nM; IC50 [4]: 120 nM; IC50 [5]: 19 nM; IC50 [6]: 10 nM; EC50 [7]: < 100 nM |
| CNc1nccc(-c2cccnc2Oc2ccc(Nc3nc4ccccc4[nH]3)c(C)c2)n1 | 590 | > 25000 | – |
| CNc1nccc(-c2cccnc2Oc2ccc(Nc3nc4ccccc4[nH]3)c(C)c2C)n1 | 310 | > 25000 | – |
| CNc1nccc(-c2cccnc2Oc2ccc(Nc3nc4ccccc4[nH]3)cc2C)n1 | 23 | > 25000 | IC50 [3]: 250 nM |
| CNc1nccc(-c2cccnc2Oc2c(C)cc(Nc3nc4ccccc4[nH]3)c3ccccc23)n1 | – | > 5000 | Activity [8]: Active; bioavailability [9]: 26%; IC50 [4]: > 1200 nM; IC50 [5]: 28 nM; unbound plasma concentration [10]: 1 nM; IC50 [6]: 80 nM; concentration [11]: 260 nM; Activity [12]: Dose-dependent effect; half-life [13]: 3.7 h; Activity [14]: 50%; fraction unbound [15]: 0.004; clearance [16]: 28 mL/min/kg; Vd [17]: 5.9 L/kg |
| CNc1nccc(-c2cccnc2Oc2ccc(Nc3nc4c(C)cccc4[nH]3)c3ccccc23)n1 | 110 | 1570 | – |
| CNc1nccc(-c2cccnc2Oc2ccc(NC(=O)Nc3ccccc3)c3ccccc23)n1 | 5 | 40 | – |
| CNc1nccc(-c2cccnc2Oc2ccc(Nc3nc4cc(C(F)(F)F)ccc4[nH]3)c3ccccc23)n1 | 27 | 69 | – |
| CNc1nccc(-c2cccnc2Oc2ccc(NC(=O)Nc3cccc(C(F)(F)F)c3)cc2C)n1 | – | 34 | – |
| CNc1nccc(-c2cccnc2Oc2ccc(Nc3nc4ccccc4n3C)c3ccccc23)n1 | 240 | 250 | – |
